Reference: US4428952A, “Substituted pyrrolo[2,1-b]quinazolines and pyrido[2,1-b]quinazolines useful for the treatment of or the prevention of gastrointestinal ulcers” (Farmitalia Carlo Erba S.p.A., priority 1981, dated 1984)

Assays:
restraint ulcers = test: inhibition of restraint ulcers in rats (Bonfils et al.); type: in vivo, rat (Sprague-Dawley male); details: po; rat, p.o. one hour before immobilization; approximate values; lesions counted 4 hours after immobilization; read-out: Anti-ulcerogenic activity ED50 p.o.
Procedure: The anti-ulcerogenic activity of the compounds of the invention is shown, e.g., by the fact that they are active in the test of the inhibition of restraint ulcers in rats, according to the method of Bonfils et al., (Therapie, 1960, 5, 1096; Jap. J. Pharmac. 1945, 43, 5).
The tested compound was administered per os (p.o.) one hour before the immobilization. Six Sprague-Dawley male rats (100-120 g) fasted 24 hours were used for the experiment: a square flexible small-mesh wire netting was used for the immobilization and 4 hours after the immobilization the rats were sacrificed, their stomachs were removed and the lesions counted under a dissecting microscope.

[1] = system: syndrome induced by oxotremorine; test: antagonism against syndrome induced by oxotremorine in mice (Leszkovszky and Tardos); anticholinergic activity; type: in vivo, mouse; details: 100 mg/kg, oral administration
Text: Considering that many anti-ulcer agents display, as does atropine, a remarkable but undesired anti-cholinergic activity, the compounds of the invention have been assessed for their antagonism against syndrome induced by oxotremorine in mice, according to the method described by Leszkovszky G. P. and Tardos L. (Europ. J.Pharmac. 1971, 15, 310).

[2] = acute toxicity (LD50), single administration of increasing doses; details: in vivo, po, mouse, per os, measured on the seventh day of treatment, read-out: approximate acute toxicity (LD50)
Text: In view of their high therapeutic index the compounds of the invention can be safely used in medicine. For example, the approximate acute toxicity (LD50) of the compounds 3-benzylidene-1,2,3,9-tetrahydro-9-oxo-pyrrolo[2,1-b]quinazoline-7-carboxylic acid; 3-benzylidene-1,2,3,9-tetrahydro-9-oxo-pyrrolo[2,1-b]quinazoline-6-carboxylic acid; 6-benzylidene-6,7,8,9-tetrahydro-11-oxo-11H-pyrido[2,1-b]quinazoline-2-carboxylic acid; 6-benzylidene-6,7,8,9-tetrahydro-11-oxo-11H-pyrido[2,1-b]quinazoline-3-carboxylic acid in mouse, determined with single administration of increasing doses and measured on the seventh day of treatment is per os higher than 800 mg/kg.

gastric secretion = test: inhibition of gastric secretion in rats (H. Shay et al.); type: in vivo; details: Rattus norvegicus, intraduodenal administration, approximate value, read-out: antisecretory activity ED50

| SMILES | ED50 (restraint ulcers) [mg/kg] | antagonism against syndrome induced by oxotremorine [1] | LD50 at 168 h [2] [mg/kg] | ED50 (gastric secretion) [mg/kg] |
| --- | --- | --- | --- | --- |
| O=C(O)c1ccc2c(=O)n3c(nc2c1)C(=Cc1ccccc1)CC3 [3-benzylidene-1,2,3,9-tetrahydro-9-oxo-pyrrolo[2,1-b]quinazoline-6-carboxylic acid] | ~10 | inactive | > 800 | – |
| O=C(O)c1ccc2nc3n(c(=O)c2c1)CCC3=Cc1ccccc1 [3-benzylidene-1,2,3,9-tetrahydro-9-oxo-pyrrolo[2,1-b]quinazoline-7-carboxylic acid] | ~8 | inactive | > 800 | – |
| O=C(O)c1ccc2c(=O)n3c(nc2c1)C(=Cc1ccccc1)CCC3 [6-benzylidene-6,7,8,9-tetrahydro-11-oxo-11H-pyrido/2,1-b/quinazoline-3-carboxylic acid] | ~8 | inactive | > 800 | ~15 |
| O=C(O)c1ccc2nc3n(c(=O)c2c1)CCCC3=Cc1ccccc1 [6-benzylidene-6,7,8,9-tetrahydro-11-oxo-11H-pyrido[2,1-b]quinazoline-2-carboxylic acid] | ~9 | inactive | > 800 | – |
